Where two headings read alike, the source gives them in different places.
Legend:
[1] = cited from earlier work; for AUC0-t / CL (L/h/m^2) / Cmax / T1/2 / Tmax / Vdss (L/m^2): patients, mean
H460 cell line [2] = assay: Cell proliferation inhibition by combining Naproxen or TH-3021 and AST-3424 in different sequence of administration (CTG); type: cell-based, human; settings: Homo sapiens, AST-3424 alone 2 h as reference, H460
Procedure: The following are the different treatment methods. […] The plate was shaken gently to ensure uniform mixing, and placed in the incubator for 2 hours. […] The plate was shaken gently to ensure uniform mixing, and placed in the incubator for 2 hours. Subsequently, the plate was washed to remove the compound, and placed in the incubator at 37° C. with 5% CO2 for further 72 hours. […] The plate was shaken gently to ensure uniform mixing, and placed in the incubator for 2 hours. Subsequently, the plate was washed to remove the compounds, and placed in the incubator at 37° C. with 5% CO2 for 72 hours. […] The plate was shaken gently to ensure uniform mixing, and placed in the incubator for 2 hours. […] The plate was shaken gently to ensure uniform mixing, and placed in the incubator for 2 hours. Subsequently, the plate was washed to remove the compounds, and placed in the incubator at 37° C. with 5% CO2 for further 72 hours. […] The plate was shaken gently to ensure uniform mixing, and placed in the incubator for 2 hours. […] The plate was shaken gently to ensure uniform mixing, and placed in the incubator for 2 hours. Subsequently, the plate was washed to remove the compounds, and placed in the incubator at 37° C. with 5% CO2 for further 72 hours. b) Administrating single drug: after 24 hours of cell seeding, the compound was administered alone. […] The plate was shaken gently to ensure uniform mixing, and placed in the incubator at 37° C. with 5% CO2 for 2 hours. Subsequently, the compound was washed off, and each well was added with fresh medium. The plate was placed in the incubator at 37° C. with 5% CO2 for further 72 hours.

H460 cell line [3] = assay: In vitro cell proliferation inhibition with the drug combination (CTG method); type: cell-based, human; settings: for IC50: Homo sapiens
Procedure: • a) H460 cells (human non-small lung cancer cells, AKR1C3 enzyme highly expressed) were cultured in RPMI-1640 medium, added with 10% FBS and 1% double antibody, and placed at 37° C. and 5% CO2 for culturing.
• a) The cells were routinely cultured until the cell saturation was 80%-90%, and when the required quantity was reached, the cells were collected. • b) The cells were resuspended with the corresponding medium and cell counts were performed to prepare a cell suspension with appropriate density. • c) The cell suspension was added to a 96-well plate with 100 μL per well, and the cell density was 2,000 cells per well. • d) The cells were incubated overnight in an incubator at 37° C. with 5% CO2. 1.1.3 Treating Cells with Compound (72 Hours)
AST-3424 alone: after 24 hours of cell seeding, AST-3424 was administered alone. Specifically, each well was supplemented with 99 μL of growth medium, and then added with 1 μL of the prepared AST-3424 solution to form different concentrations of AST-3424. The plate was shaken gently to ensure uniform mixing, and placed in an incubator at 37° C. with 5% CO2.
The cell plates were placed in the incubator for 72 hours.
1.1.4 Treating Cells with Compound (2 Hours) • a) Administrating single drug: after 24 hours of cell seeding, AST-3424 was administered alone. Specifically, each well was supplemented with 99 μL of growth medium, and then added with 1 μL of the prepared AST-3424 solution to form different concentrations of AST-3424. The plate was shaken gently to ensure uniform mixing, and placed in the incubator for 2 hours. […] The plate was shaken gently to ensure uniform mixing. After the plate was placed in the incubator for 2 hours, 1 μL of the prepared AST-3424 solution was added to form different concentrations of AST-3424. The plate was shaken gently to ensure uniform mixing, and placed in the incubator at 37° C. with 5% CO2 for another 2 hours. Then, the supernatant was discarded, and the remainder was washed twice with growth medium and added with 200 μL of fresh medium.
1.1.6 Detecting with CTG Method • a) The cell plate to be tested was placed at room temperature to equilibrium for 30 minutes, and 100 μL of culture medium was discarded from each well. • b) 25 μL CTG reagent (CelltiterGlo kit) was added to each well. The plate was placed on a fast shaker to shake for 2 minutes, and then placed at room temperature away from light for 30 minutes. • c) The chemiluminescent signal value was read with multifunctional microplate reader at reading time of 1000 ms.
IC50 was calculated with GraphPad Prism 5 software, and the IC50 (half maximal inhibitory concentration) of the compound was obtained using the following nonlinear fitting formula: […]

[4] = Body weight / tolerance of mice in the human lung cancer NCI-H460 model
Procedure: BALB/c nude mice were subcutaneously inoculated with human lung cancer NCI-H460 cells to establish the subcutaneous transplant tumor model of human lung cancer. The experiment was assigned to seven groups, with 5 mice in each group: the test drug Celecoxib 50 mg/kg and 100 mg/kg groups, the AST-3424 2.5 mg/kg group, and different combination therapy groups of Celecoxib 50 mg/kg or 100 mg/kg and AST-3424 2.5 mg/kg, and the 0.5% sodium carboxymethylcellulose vehicle control group. […] The AST-3424 2.5 mg/kg group was administered by tail vein injection once a week for a total of three weeks, and observed for 7 days. In the combination therapy groups of Celecoxib 50 mg/kg or 100 mg/kg and AST-3424 2.5 mg/kg, Celecoxib was administered by gavage once a day for a total of 15 days, and AST-3424 was administered by tail vein injection once a week for a total of three weeks, and observed for 7 days.

[5] = OBI-3424 dose level 1 mg/m^2, infusion
[6] = OBI-3424 dose level 2 mg/m^2, infusion
[7] = OBI-3424 dose level 4 mg/m^2, infusion
[8] = OBI-3424 dose level 6 mg/m^2, infusion
[9] = OBI-3424 dose level 8 mg/m^2, infusion
[10] = OBI-3424 dose level 10 mg/m^2, infusion
[11] = OBI-3424 dose level 12 mg/m^2, infusion
[12] = OBI-3424 dose level 14 mg/m^2, infusion
[13] = Group 7: AST-3424 2.5 mg/kg QW×3 i.v., Day 37 after the inoculation of tumor cell

For C[C@H](OP(=O)(N1CC1)N1CC1)c1ccc([N+](=O)[O-])c(Oc2cccc(C(=O)N(C)C)c2)c1 [AST-3424], the “AUC0-t” value [1, 5] is listed as 217.10 ng·h/mL, the “CL (L/h/m^2)” value [1, 5] is listed as 4.74 L/h/m^2 and the “Cmax” value [1, 5] is listed as 289.30 ng/mL. For the same compound, the “T1/2” value [1, 5] was 17.4 min, the “Tmax” value [1, 5] was 27.6 min and the “Vdss (L/m^2)” value [1, 5] was 2.45 L/m^2. The “AUC0-t” value [1, 6] was 298.00 ng·h/mL, the “CL (L/h/m^2)” value [1, 6] was 8.85 L/h/m^2 and the “Cmax” value [1, 6] was 375.80 ng/mL. The “T1/2” value [1, 6] was 18.6 min, the “Tmax” value [1, 6] was 30 min and the “Vdss (L/m^2)” value [1, 6] was 4.13 L/m^2. The “AUC0-t” value [1, 7] was 650.90 ng·h/mL, the “CL (L/h/m^2)” value [1, 7] was 7.74 L/h/m^2 and the “Cmax” value [1, 7] was 803.50 ng/mL. The “T1/2” value [1, 7] was 12.6 min, the “Tmax” value [1, 7] was 19.8 min and the “Vdss (L/m^2)” value [1, 7] was 2.68 L/m^2. The “AUC0-t” value [1, 8] was 1278.10 ng·h/mL, the “CL (L/h/m^2)” value [1, 8] was 4.84 L/h/m^2 and the “Cmax” value [1, 8] was 1360.30 ng/mL. The “T1/2” value [1, 8] was 44.4 min, the “Tmax” value [1, 8] was 30 min and the “Vdss (L/m^2)” value [1, 8] was 3.72 L/m^2. For the same compound, the “AUC0-t” value [1, 9] was 1678.40 ng·h/mL, the “CL (L/h/m^2)” value [1, 9] was 6.53 L/h/m^2 and the “Cmax” value [1, 9] was 1613.10 ng/mL. For the same compound, the “T1/2” value [1, 9] was 40.2 min, the “Tmax” value [1, 9] was 25.2 min and the “Vdss (L/m^2)” value [1, 9] was 3.97 L/m^2. For the same compound, the “AUC0-t” value [1, 10] was 2037.00 ng·h/mL, the “CL (L/h/m^2)” value [1, 10] was 4.92 L/h/m^2 and the “Cmax” value [1, 10] was 2654.70 ng/mL. The “T1/2” value [1, 10] was 34.2 min, the “Tmax” value [1, 10] was 30 min and the “Vdss (L/m^2)” value [1, 10] was 3.06 L/m^2. The “AUC0-t” value [1, 11] was 2159.40 ng·h/mL, the “CL (L/h/m^2)” value [1, 11] was 8.20 L/h/m^2 and the “Cmax” value [1, 11] was 2481.90 ng/mL. The “T1/2” value [1, 11] was 33 min, the “Tmax” value [1, 11] was 26.4 min and the “Vdss (L/m^2)” value [1, 11] was 4.33 L/m^2. For the same compound, the “AUC0-t” value [1, 12] was 2131.80 ng·h/mL, the “CL (L/h/m^2)” value [1, 12] was 8.49 L/h/m^2 and the “Cmax” value [1, 12] was 2619.20 ng/mL. The “T1/2” value [1, 12] was 33 min, the “Tmax” value [1, 12] was 25.2 min and the “Vdss (L/m^2)” value [1, 12] was 4.31 L/m^2. The “accumulation of exposure (Cmax and AUC)” value ([1]; between the two doses (Cycle 1 Day1 and Cycle 1 Day8)) was “no accumulation of exposure”, the IC50 (H460 cell line [2]; NCI-H460, 2 h, Group 2: TH-3021 3 μM or Naproxen 400 μM + AST-3424 2 h simultaneously) was 1.08 nM and the IC50 (H460 cell line [2]; NCI-H460, Group 1: TH-3021 3 μM or Naproxen 400 μM 2 h pretreatment, washed off, then AST-3424 2 h) was 0.88 nM. The IC50 (H460 cell line [2]; NCI-H460, Group 3: AST-3424 2 h pretreatment, washed off, then TH-3021 3 μM or Naproxen 400 μM 2 h) was 1 nM, the IC50 (H460 cell line [2]; NCI-H460, Group 4: TH-3021 3 μM or Naproxen 400 μM 2 h pretreatment, not washed off, AST-3424 2 h cotreatment) was 1.14 nM and the IC50 (H460 cell line [3]; NCI-H460, AST-3424 alone, read-out: IC50(nM) -TH-3021) was 0.97 nM. The IC50 (H460 cell line [3]; NCI-H460, read-out: IC50(nM) +3 μM TH-3021, +3 μM TH-3021 (2 h pre-incubation, then 2 h with AST-3424)) was 360 nM, the Inhibition factor (H460 cell line [3]; IC50 +3 μM TH-3021 vs AST-3424 alone) was 371.65 and the “Mean body weight g (x ± S)” value ([4]; Group 7: AST-3424 2.5 mg/kg QW×3 i.v., Day 9 after the inoculation of tumor cell) was 25.6 ± 0.7 g. For the same compound, the “Change of body weight (%)” value [4, 13] was −11.74%, the “Mean body weight g (x ± S)” value [4, 13] was 22.5 ± 0.5 g and the tolerance of mice ([4]; NCI-H460 model) was “good tolerance”.

Source: patent US20260130928A1, “COMBINATION OF AKR1C3 ACTIVATED ANTICANCER PRODRUG COMPOUND AND ANALGESIC DRUG FOR TREATING CANCER PATIENTS ACCOMPANIED BY PAIN” (ASCENTAWITS PHARMACEUTICALS, LTD., priority 2022, published 2026)
